Results published in US9695155B2, “Herbicidal substituted pyrimidinyloxy benzene compounds” (E. I. DU PONT DE NEMOURS AND COMPANY, priority 2013, dated 2017).

What was measured:
[1] = test system: kochia; test: Test D preemergence; assay type: in vivo, Kochia scoparia; settings: Bassia scoparia, pre-emergence; for pest or weed control at 16 g/ha: 16 g ai/ha, scale 0 (no effect) to 100 (complete control), read-out: Plant response rating, Kochia; for pest or weed control at 31 g/ha: 31 g ai/ha; for pest or weed control at 31 g/ha / pest or weed control at 62 g/ha / pest or weed control at 125 g/ha / pest or weed control at 250 g/ha: scale 0-100, read-out: Plant response rating, Kochia; for pest or weed control at 62 g/ha: 62 g ai/ha; for pest or weed control at 125 g/ha: 125 g ai/ha; for pest or weed control at 250 g/ha: 250 g ai/ha
Summary of the method: (§1)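 Plant response is a visual score from 0 (no effect) to 100 (complete control) relative to controls. Plants were kept in a controlled growth environment for 7 to 21 days after spraying. Preemergence treatments went onto silt loam soil; postemergence ones onto 1- to 4-leaf seedlings.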

[2] = test system: large (Lg) crabgrass; test: Test E preemergence; assay type: in vivo, Digitaria sanguinalis; settings: for Crabgrass, Large plant response rating: scale 0 to 100 (0 no effect, 100 complete control)
Summary of the method: (§2)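 Compound in a non-phytotoxic solvent mixture with surfactant was applied preemergence to seeds in silt loam soil, or postemergence to plants 2 to 18 cm tall grown in peat-based potting medium. Plants were kept in a greenhouse for 14 to 21 days, then rated visually against untreated controls on a 0 (no effect) to 100 (complete control) scale.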

[3] = test system: cocklebur; test: Test E preemergence; assay type: in vivo, Xanthium strumarium
Summary of the method: as §2

[4] = test system: lambsquarters; test: Test E preemergence; assay type: in vivo, Chenopodium album; settings: for Lambsquarters plant response rating: scale 0 to 100 (0 no effect, 100 complete control)
Summary of the method: as §2

[5] = test system: barnyardgrass; test: Test C flooded paddy test; assay type: in vivo, Echinochloa crus-galli; settings: Flood, scale 0 to 100 (0 no effect, 100 complete control), 13 to 15 days
Summary of the method: (§3)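 Test compounds are applied straight into paddy water held 3 cm above the soil surface, with that flood maintained for the whole test. After 13 to 15 days in the greenhouse, each species is scored visually relative to controls.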

[6] = test system: arrowleaf sida; test: Test E preemergence; assay type: in vivo, Sida rhombifolia; settings: for Arrowleaf Sida plant response rating: scale 0 to 100 (0 no effect, 100 complete control)
Summary of the method: as §2

[7] = test system: Brazilian crabgrass; test: Test E preemergence; assay type: in vivo, Digitaria horizontalis; settings: for Crabgrass, Brazil plant response rating: scale 0 to 100 (0 no effect, 100 complete control)
Summary of the method: as §2

[8] = test system: barnyardgrass; test: Test E preemergence; assay type: in vivo, Echinochloa crus-galli; settings: for Barnyardgrass plant response rating: scale 0 to 100 (0 no effect, 100 complete control)
Summary of the method: as §2

[9] = test system: wild mustard; test: Test D preemergence; assay type: in vivo, Sinapis arvensis; settings: Brassica, pre-emergence; for pest or weed control at 16 g/ha: 16 g ai/ha, scale 0 (no effect) to 100 (complete control), read-out: Plant response rating, Mustard, Wild; for pest or weed control at 31 g/ha: 31 g ai/ha; for pest or weed control at 31 g/ha / pest or weed control at 62 g/ha / pest or weed control at 125 g/ha / pest or weed control at 250 g/ha: scale 0-100, read-out: Plant response rating, Mustard, Wild; for pest or weed control at 62 g/ha: 62 g ai/ha; for pest or weed control at 125 g/ha: 125 g ai/ha; for pest or weed control at 250 g/ha: 250 g ai/ha
Summary of the method: as §1

[10] = test system: surinam grass; test: Test E preemergence; assay type: in vivo, Brachiaria decumbens; settings: for Surinam Grass plant response rating: scale 0 to 100 (0 no effect, 100 complete control)
Summary of the method: as §2

[11] = test system: sedge, umbrella; test: Test C flooded paddy test; assay type: in vivo, Cyperus difformis; settings: Flood, scale 0 to 100 (0 no effect, 100 complete control), 13 to 15 days
Summary of the method: as §3

[12] = test system: velvetleaf; test: Test E preemergence; assay type: in vivo, Abutilon theophrasti; settings: for Velvetleaf plant response rating: scale 0 to 100 (0 no effect, 100 complete control)
Summary of the method: as §2

[13] = 125 g ai/ha, scale 0 to 100, 0 no effect, 100 complete control
[14] = 250 g ai/ha, scale 0 to 100, 0 no effect, 100 complete control
[15] = Preemergence, 62 g ai/ha, scale 0 to 100, 0 no effect, 100 complete control
[16] = preemergence, 125 g ai/ha, scale 0 to 100, 0 no effect, 100 complete control
[17] = preemergence, 250 g ai/ha, scale 0 to 100, 0 no effect, 100 complete control
[18] = 8 g ai/ha, scale 0 to 100, 0 is no effect, 100 is complete control
[19] = 8 g ai/ha, preemergence, scale 0 to 100, 0 is no effect, 100 is complete control

FC(F)(F)c1cnn(-c2ccccc2Oc2ncc(Br)cn2)c1 [Compound 18, 5-bromo-2-[2-[4-(trifluoromethyl)-1H-pyrazol-1-yl]phenoxy]pyrimidine]
pest or weed control at 16 g/ha [1]: 15% | pest or weed control at 31 g/ha [1]: 90% | pest or weed control at 62 g/ha [1]: 75% | pest or weed control at 125 g/ha [1]: 100% | pest or weed control at 250 g/ha [1]: 100% | Crabgrass, Large plant response rating ([2]; 16 g ai/ha): 0 | Crabgrass, Large plant response rating ([2]; 31 g ai/ha): 0 | Crabgrass, Large plant response rating ([2]; 62 g ai/ha): 40 | Plant response rating, Crabgrass, Large [2, 13]: 100 | Plant response rating, Crabgrass, Large [2, 14]: 100 | Cocklebur plant response rating ([3]; 62 g ai/ha, scale 0 to 100 (0 no effect, 100 complete control)): 0 | Lambsquarters plant response rating ([4]; 16 g ai/ha): 80 | Lambsquarters plant response rating ([4]; 31 g ai/ha): 90 | Lambsquarters plant response rating ([4]; 62 g ai/ha): 98 | Plant response rating, Lambsquarters [4, 13]: 98 | Plant response rating, Lambsquarters [4, 14]: 98 | Plant response rating, Barnyardgrass ([5]; 31 g ai/ha): 0 | Plant response rating, Barnyardgrass ([5]; 62 g ai/ha): 0 | Plant response rating, Barnyardgrass ([5]; 125 g ai/ha): 10 | Plant response rating, Barnyardgrass ([5]; 250 g ai/ha): 20 | Arrowleaf Sida plant response rating ([6]; 16 g ai/ha, preemergence): 0 | Arrowleaf Sida plant response rating ([6]; 31 g ai/ha, preemergence): 5 | Plant response rating, Arrowleaf Sida [6, 15]: 70 | Plant response rating, Arrowleaf Sida [6, 16]: 85 | Plant response rating, Arrowleaf Sida [6, 17]: 95 | Crabgrass, Brazil plant response rating ([7]; 16 g ai/ha): 0 | Crabgrass, Brazil plant response rating ([7]; 31 g ai/ha): 95 | Crabgrass, Brazil plant response rating ([7]; 62 g ai/ha): 98 | Plant response rating, Crabgrass, Brazil [7, 13]: 100 | Plant response rating, Crabgrass, Brazil [7, 14]: 100 | Barnyardgrass plant response rating ([8]; 16 g ai/ha, preemergence): 0 | Barnyardgrass plant response rating ([8]; 31 g ai/ha, preemergence): 0 | Plant response rating, Barnyardgrass [8, 15]: 0 | Plant response rating, Barnyardgrass [8, 16]: 5 | Plant response rating, Barnyardgrass [8, 17]: 20 | pest or weed control at 16 g/ha [9]: 80% | pest or weed control at 31 g/ha [9]: 85% | pest or weed control at 62 g/ha [9]: 100% | pest or weed control at 125 g/ha [9]: 90% | pest or weed control at 250 g/ha [9]: 100% | Surinam Grass plant response rating ([10]; 16 g ai/ha): 0 | Surinam Grass plant response rating ([10]; 31 g ai/ha): 0 | Surinam Grass plant response rating ([10]; 62 g ai/ha): 0 | Plant response rating, Surinam Grass [10, 13]: 0 | Plant response rating, Surinam Grass [10, 14]: 20 | Plant response rating, Sedge, Umbrella ([11]; 31 g ai/ha): 70 | Plant response rating, Sedge, Umbrella ([11]; 62 g ai/ha): 75 | Plant response rating, Sedge, Umbrella ([11]; 125 g ai/ha): 85 | Plant response rating, Sedge, Umbrella ([11]; 250 g ai/ha): 90 | Velvetleaf plant response rating ([12]; 16 g ai/ha): 25 | Velvetleaf plant response rating ([12]; 31 g ai/ha): 95 | Velvetleaf plant response rating ([12]; 62 g ai/ha): 100 | Plant response rating, Velvetleaf [12, 13]: 100 | Plant response rating, Velvetleaf [12, 14]: 100

Clc1cnc(Oc2ccccc2-n2cc(Br)cn2)nc1 [Compound 7, 2-[2-(4-bromo-1H-pyrazol-1-yl)phenoxy]-5-chloropyrimidine]
pest or weed control at 16 g/ha [1]: 0% | pest or weed control at 31 g/ha [1]: 0% | pest or weed control at 62 g/ha [1]: 0% | pest or weed control at 125 g/ha [1]: 0% | pest or weed control at 250 g/ha [1]: 70% | Plant response rating, Crabgrass, Large [2, 18]: 0 | Crabgrass, Large plant response rating ([2]; 16 g ai/ha): 0 | Crabgrass, Large plant response rating ([2]; 31 g ai/ha): 70 | Crabgrass, Large plant response rating ([2]; 62 g ai/ha): 75 | Plant response rating, Crabgrass, Large [2, 13]: 98 | Plant response rating, Cocklebur [3, 13]: 0 | Plant response rating, Lambsquarters [4, 18]: 0 | Lambsquarters plant response rating ([4]; 16 g ai/ha): 0 | Lambsquarters plant response rating ([4]; 31 g ai/ha): 75 | Lambsquarters plant response rating ([4]; 62 g ai/ha): 98 | Plant response rating, Lambsquarters [4, 13]: 100 | Plant response rating, Arrowleaf Sida [6, 19]: 0 | Arrowleaf Sida plant response rating ([6]; 16 g ai/ha, preemergence): 0 | Arrowleaf Sida plant response rating ([6]; 31 g ai/ha, preemergence): 25 | Plant response rating, Arrowleaf Sida [6, 15]: 50 | Plant response rating, Arrowleaf Sida [6, 16]: 80 | Plant response rating, Crabgrass, Brazil [7, 18]: 0 | Crabgrass, Brazil plant response rating ([7]; 16 g ai/ha): 0 | Crabgrass, Brazil plant response rating ([7]; 31 g ai/ha): 80 | Crabgrass, Brazil plant response rating ([7]; 62 g ai/ha): 100 | Plant response rating, Crabgrass, Brazil [7, 13]: 100 | Plant response rating, Barnyardgrass [8, 19]: 0 | Barnyardgrass plant response rating ([8]; 16 g ai/ha, preemergence): 0 | Barnyardgrass plant response rating ([8]; 31 g ai/ha, preemergence): 0 | Plant response rating, Barnyardgrass [8, 15]: 0 | Plant response rating, Barnyardgrass [8, 16]: 0 | pest or weed control at 16 g/ha [9]: 20% | pest or weed control at 31 g/ha [9]: 20% | pest or weed control at 62 g/ha [9]: 80% | pest or weed control at 125 g/ha [9]: 90% | pest or weed control at 250 g/ha [9]: 100% | Plant response rating, Surinam Grass [10, 18]: 0 | Surinam Grass plant response rating ([10]; 16 g ai/ha): 0 | Surinam Grass plant response rating ([10]; 31 g ai/ha): 0 | Surinam Grass plant response rating ([10]; 62 g ai/ha): 10 | Plant response rating, Surinam Grass [10, 13]: 35 | Plant response rating, Velvetleaf [12, 18]: 20 | Velvetleaf plant response rating ([12]; 16 g ai/ha): 50 | Velvetleaf plant response rating ([12]; 31 g ai/ha): 65 | Velvetleaf plant response rating ([12]; 62 g ai/ha): 98 | Plant response rating, Velvetleaf [12, 13]: 100
